Experimental data: publication PMC12406256, “Food Additives Inhibit Intestinal Drug Transporters but Have Limited Effect on In Vitro Drug Permeability” (Molecular Pharmaceutics, 2025)
“And” between values parts separate entries of the source, which are not always exact repeats. Equal values may be shown once. “Also recorded” adds a separate entry of the source. Read-outs that look alike come from different tables or passages of the source. One block for each compound: values may come before it.

Legend:
P-gp [1] = target: T1, P-gp (Homo sapiens, UniProt P08183); test: Vesicular transport assay, P-gp (N-methyl-quinidine substrate); details: food additive 50 μM; N-methyl-quinidine 2 μM; n = 1
Method: (§1) Transport inhibition by 22 food additives was tested with Spodoptera frugiperda (Sf9) derived crude membrane vesicles expressing BCRP, MRP2, or P-gp produced in-house. […] Vesicles (50 μg total protein/well) were diluted in an assay buffer (40 mM MOPS–Tris pH 7.0, 60 mM KCl, and 6 mM MgCl2) with the substrate, and food additives (final concentration of 50 μM) in DMSO were added to the mixture. After preincubation, either the assay buffer or Mg-ATP solution (final concentration 4 mM) was added to the plate to start the reaction. The plate was incubated at 37 °C, and the reaction was stopped with an ice-cold washing mixture (40 mM MOPS-Tris pH 7.0 and 70 mM KCl). Samples were moved to a MultiScreenHTS-FB Plate Glass fiber 1.0 μm/0.65 μm Durapore filter plate (Millipore, USA), and the wells were washed five times with the ice-cold washing mixture. For BCRP and MRP2, the fluorescent substrate was eluted from the filters with 100 μL 0.1 M NaOH. For LY samples, an equal volume of 0.1 M HCl was added to neutralize the samples before fluorescence measurement. The amount of the substrate accumulated into the vesicles was measured by fluorescent detection using a Varioskan LUX microplate reader (Thermo Fisher Scientific, Finland) (Table ). The accumulation into the P-gp vesicles was measured with high-performance liquid chromatography (HPLC) (Agilent 110 series, Agilent Technologies, USA) after lysis and elution of the vesicle contents with 100 μL 3:1 methanol/water + 0.1% formic acid. The column used was a Poroshell 120 EC-C18 with a size of 4.6 × 100 mm and 2.7 μm particle size. Eluent A was 0.1% formic acid, and eluent B was acetonitrile. The flow rate of eluent was 1 mL/min, and the injection volume of samples was 10 μL. […] The retention time for NMQ was around 2.5 min.
(§2) For the efflux transporters, the relative transport was calculated as relativetransport(%ofcontrol)=transportinh,ATP−transportinh,noATP/transportDMSO,ATP−transportDMSO,noATP×100% where transportinh,ATP and transportinh,no ATP are the transport rates in the presence of food additives with or without ATP, respectively, and transportDMSO,ATP and transportDMSO,no ATP are the corresponding transport rates in the presence of the vehicle (DMSO) with or without ATP.
(§3) The half-maximal inhibitory concentrations (IC50) were calculated with GraphPad Prism version 9.0.2 (GraphPad Software, San Diego, CA) using nonlinear regression that fits the data to a four-parameter dose–response curve: relativetransport=minimum+maximum−minimum/1+([I]/IC50)^h where minimum and maximum describe the plateaus of minimal and maximal relative transport (%), [I] is the concentration of inhibitor, and h is the Hill slope, which describes the steepness of the slope.

OATP2B1 [2] = target: T2, OATP2B1 (Homo sapiens, UniProt O94956); test: HEK293 uptake assay, OATP2B1 (5-carboxyfluorescein substrate); assay type: cell-based; details: food additive 50 μM; 5-carboxyfluorescein 2 μM; HEK293 cells; n = 1
T2 construct: expressed in transfected cells; host or cells: HEK293 cells (ATCC) transduced with recombinant OATP2B1 baculovirus
T2 sequence (O94956 1-709): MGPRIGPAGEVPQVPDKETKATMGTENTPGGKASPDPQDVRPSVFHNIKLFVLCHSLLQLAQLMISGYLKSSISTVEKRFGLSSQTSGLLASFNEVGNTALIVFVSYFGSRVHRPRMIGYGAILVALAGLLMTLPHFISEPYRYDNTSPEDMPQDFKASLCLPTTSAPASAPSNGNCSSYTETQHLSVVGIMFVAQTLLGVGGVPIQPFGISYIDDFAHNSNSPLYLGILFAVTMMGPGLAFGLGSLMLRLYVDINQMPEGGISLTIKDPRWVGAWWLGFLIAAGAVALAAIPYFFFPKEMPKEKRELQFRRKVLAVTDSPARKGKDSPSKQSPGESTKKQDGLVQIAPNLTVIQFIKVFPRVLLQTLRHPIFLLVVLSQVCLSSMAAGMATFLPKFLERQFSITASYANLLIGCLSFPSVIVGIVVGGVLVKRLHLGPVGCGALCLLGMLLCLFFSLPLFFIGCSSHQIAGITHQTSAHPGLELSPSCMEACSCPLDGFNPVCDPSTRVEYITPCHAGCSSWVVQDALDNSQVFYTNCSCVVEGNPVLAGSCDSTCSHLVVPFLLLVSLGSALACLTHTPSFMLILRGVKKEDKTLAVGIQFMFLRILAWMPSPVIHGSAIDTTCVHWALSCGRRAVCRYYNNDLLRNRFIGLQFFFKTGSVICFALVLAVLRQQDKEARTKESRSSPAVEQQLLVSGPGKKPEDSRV
Method: The inhibition of OATP2B1 was studied using a HEK293 cell-based uptake assay. HEK293 cells were cultured in DMEM supplemented with 10% FBS at 37 °C and 5% CO2 and seeded at 22,500 cells/well on 96-well plates coated with 0.1 mg/mL poly-D-lysine. After 24 h, the medium was replaced with a transduction mix (DMEM with 10% FBS, 5 mM sodium butyrate, and recombinant OATP2B1 or enhanced yellow fluorescent protein [eYFP, negative control] baculoviruses). The baculoviruses were produced as previously described. The uptake assay was performed after approximately 48 h. […] Test solutions also contained the substrate. Cells were washed with warm transport buffer and preincubated at 37 °C. Preincubation solutions were replaced with test solutions and incubated at 37 °C with shaking at 250 rpm. Transport was terminated by aspirating the test solution and washing the wells with an ice-cold transport buffer (150 μL) three times. Wells were left to dry, and cells were lysed with 0.1 M NaOH. […] Total protein concentration was measured from six random wells with a Pierce Coomassie (Bradford) Assay kit (Thermo Fisher Scientific) to ensure a similar protein concentration in the OATP2B1 and eYFP wells.

BCRP [3] = target: T3, BCRP (Homo sapiens, UniProt Q9UNQ0); test: Vesicular transport assay, BCRP (Lucifer yellow substrate); assay type: biochemical; set-up: made in house; host or cells: Spodoptera frugiperda Sf9 cells, crude membrane vesicles; details: for inhibition of BCRP substrate accumulation: n = 1
T3 sequence (Q9UNQ0 1-655): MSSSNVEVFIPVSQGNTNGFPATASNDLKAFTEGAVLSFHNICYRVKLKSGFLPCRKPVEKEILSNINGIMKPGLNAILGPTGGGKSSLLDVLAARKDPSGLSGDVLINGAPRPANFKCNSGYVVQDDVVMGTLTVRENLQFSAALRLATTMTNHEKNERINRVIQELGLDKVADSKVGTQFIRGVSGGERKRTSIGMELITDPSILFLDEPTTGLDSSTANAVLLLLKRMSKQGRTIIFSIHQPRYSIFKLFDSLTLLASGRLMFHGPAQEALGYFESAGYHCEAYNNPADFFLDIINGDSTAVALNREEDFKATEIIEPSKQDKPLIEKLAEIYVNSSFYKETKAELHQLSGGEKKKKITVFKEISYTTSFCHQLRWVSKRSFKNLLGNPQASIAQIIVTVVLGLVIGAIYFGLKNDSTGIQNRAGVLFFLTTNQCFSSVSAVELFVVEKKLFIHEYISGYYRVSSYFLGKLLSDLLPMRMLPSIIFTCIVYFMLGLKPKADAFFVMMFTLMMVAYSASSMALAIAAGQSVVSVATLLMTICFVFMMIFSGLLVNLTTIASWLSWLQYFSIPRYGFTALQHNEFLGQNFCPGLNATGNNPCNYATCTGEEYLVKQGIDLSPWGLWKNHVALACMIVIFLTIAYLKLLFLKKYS
Method: as §1, §2, §3

OATP2B1 [4] = target: T2, OATP2B1; details: cited from earlier work
BCRP [5] = target: T3, BCRP; details: cited from earlier work
P-gp [6] = target: T1, P-gp; set-up: made in house; host or cells: Spodoptera frugiperda Sf9 cells, crude membrane vesicles; details: ref Kulkarni et al.; cited from earlier work
Caco-2 cells = test: in vitro
Method: Caco-2 cells were cultured on 12-well Transwell polycarbonate membrane inserts with a 0.4 μm pore size (Corning Incorporated, Kennebunk, ME) at 37 °C and 5% CO2 for 21–24 days prior to the experiment as described in Hubatsch et al. The culture medium (DMEM, 10% FBS, 1% MEM nonessential amino acids, 100 U/mL penicillin–streptomycin) was changed every second day. Transepithelial electrical resistance (TEER) was measured before and after the permeability assay with a Millicell-ERS electrode (Millipore, Bedford, MA) attached to an epithelial volt ohm meter (EVOM, World Precision Instruments, Sarasota, FL). The permeability assay was performed according to a previously published protocol. […] Sulfasalazine is a substrate of BCRP and OATP2B1. , The DMSO concentration was 0.45–1.5%. Before the experiment, inserts were washed and preincubated in the transport buffer for 20 min shaking at 37 °C. Sulfasalazine and LY permeability was measured in the apical to basolateral direction at five time points (20, 40, 60, 90, and 120 min) and, additionally, in the basolateral to apical direction to calculate the efflux ratio. […] […] LY (250 μM) was added on the donor side of all inserts to measure the integrity of the cell monolayer. Before analysis, samples were centrifuged at 2755g for 30 min, and donor solution and mass balance samples were diluted 1:100. LY fluorescence was measured with a Varioskan LUX microplate reader (Thermo Fisher Scientific) at 430 nm excitation and 538 nm emission. Sulfasalazine was analyzed with ultra-performance liquid chromatography (UPLC) using a Syncronis C18 column (1.7 μm particle size, 50 × 2.1 mm + 0.2 μm Waters online filter) (Thermo Fisher Scientific) coupled with Waters Acquity UPLC interfaced with a PDA detector both controlled by the Waters Empower software version 3. The UPLC was operated in gradient mode at 354 nm. Solvents were 0.015 M phosphate buffer pH 2 (A), acetonitrile (B), 1:1 acetonitrile/methanol (strong needle wash), and 20% acetonitrile (weak needle wash). Column temperature was 30 °C, injection volume was 10 μL, retention time was 1.46 min, and flow rate was 0.5 mL/min. The gradient was 25% B → 70% B (0–3 min), 70% B → 25% B (3.00–3.01 min), and 25% B (3.01–4 min). The data were collected for the first 180 s of each UPLC run.
In the Caco-2 permeability assay, the apparent permeability (P app) of sulfasalazine was calculated using the following equation: Papp=(dQ/dt)(1/A×C0) where dQ/dt is the rate of permeation across the cells (nmol/min), A is the surface area of the filter (1.12 cm^2), and C 0 is the initial concentration in the donor chamber (μM). The efflux ratio of sulfasalazine was calculated by dividing the P app in the basolateral to the apical direction by the P app in the apical to basolateral direction. The TEER for each cell insert was calculated before and after the experiment by multiplying the mean resistance of three measurements by the surface area of the filter (1.12 cm^2). Mass balance was calculated by dividing the […]. All experiments were done in triplicate wells, and the IC50 and Caco-2 permeability assays were repeated three times.

MRP2 = target: T4, MRP2 (Homo sapiens, UniProt Q92887); test: Vesicular transport assay, MRP2 (CDCF substrate); assay type: biochemical
T4 construct: made in house; host or cells: Spodoptera frugiperda Sf9 cells, crude membrane vesicles
Method: Transport inhibition by 22 food additives was tested with Spodoptera frugiperda (Sf9) derived crude membrane vesicles expressing BCRP, MRP2, or P-gp produced in-house. […] Vesicles (50 μg total protein/well) were diluted in an assay buffer (40 mM MOPS–Tris pH 7.0, 60 mM KCl, and 6 mM MgCl2) with the substrate, and food additives (final concentration of 50 μM) in DMSO were added to the mixture. After preincubation, either the assay buffer or Mg-ATP solution (final concentration 4 mM) was added to the plate to start the reaction. The plate was incubated at 37 °C, and the reaction was stopped with an ice-cold washing mixture (40 mM MOPS-Tris pH 7.0 and 70 mM KCl). Samples were moved to a MultiScreenHTS-FB Plate Glass fiber 1.0 μm/0.65 μm Durapore filter plate (Millipore, USA), and the wells were washed five times with the ice-cold washing mixture. For BCRP and MRP2, the fluorescent substrate was eluted from the filters with 100 μL 0.1 M NaOH. […] The amount of the substrate accumulated into the vesicles was measured by fluorescent detection using a Varioskan LUX microplate reader (Thermo Fisher Scientific, Finland) (Table ).
as §2, §3

[7] = food additive 50 μM, Lucifer yellow 50 μM

T1 sequence (P08183 whole entry): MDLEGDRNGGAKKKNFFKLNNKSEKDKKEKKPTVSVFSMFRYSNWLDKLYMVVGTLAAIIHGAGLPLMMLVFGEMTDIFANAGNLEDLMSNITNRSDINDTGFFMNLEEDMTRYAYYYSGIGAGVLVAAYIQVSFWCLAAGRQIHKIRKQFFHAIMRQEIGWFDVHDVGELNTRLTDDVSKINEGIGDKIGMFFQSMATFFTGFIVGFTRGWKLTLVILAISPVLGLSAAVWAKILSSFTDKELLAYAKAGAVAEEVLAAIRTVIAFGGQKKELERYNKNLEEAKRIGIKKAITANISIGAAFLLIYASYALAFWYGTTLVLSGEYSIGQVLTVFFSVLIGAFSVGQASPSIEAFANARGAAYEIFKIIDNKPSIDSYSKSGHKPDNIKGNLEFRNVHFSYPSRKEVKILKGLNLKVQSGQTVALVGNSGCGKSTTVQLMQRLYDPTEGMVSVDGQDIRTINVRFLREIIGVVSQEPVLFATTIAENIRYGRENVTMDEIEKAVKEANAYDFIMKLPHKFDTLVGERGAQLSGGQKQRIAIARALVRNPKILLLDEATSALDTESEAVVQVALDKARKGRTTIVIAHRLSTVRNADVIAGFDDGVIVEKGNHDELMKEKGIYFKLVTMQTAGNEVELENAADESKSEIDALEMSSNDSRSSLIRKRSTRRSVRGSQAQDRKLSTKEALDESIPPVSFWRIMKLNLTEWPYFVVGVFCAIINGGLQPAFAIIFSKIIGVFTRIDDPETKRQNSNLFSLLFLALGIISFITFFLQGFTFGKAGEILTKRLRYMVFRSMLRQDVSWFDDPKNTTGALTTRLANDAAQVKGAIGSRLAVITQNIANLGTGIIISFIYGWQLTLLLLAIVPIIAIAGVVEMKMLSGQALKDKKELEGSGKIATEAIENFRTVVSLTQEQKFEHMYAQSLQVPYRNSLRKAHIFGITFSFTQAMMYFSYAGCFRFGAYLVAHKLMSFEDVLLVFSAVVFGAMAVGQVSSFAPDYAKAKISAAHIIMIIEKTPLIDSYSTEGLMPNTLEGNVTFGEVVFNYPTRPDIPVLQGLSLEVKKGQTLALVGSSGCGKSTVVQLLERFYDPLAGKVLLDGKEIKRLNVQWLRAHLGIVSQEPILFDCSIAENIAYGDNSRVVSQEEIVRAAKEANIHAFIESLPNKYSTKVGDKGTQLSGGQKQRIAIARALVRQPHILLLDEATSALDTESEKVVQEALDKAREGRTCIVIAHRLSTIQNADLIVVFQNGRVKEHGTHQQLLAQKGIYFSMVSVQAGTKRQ
T4 sequence (Q92887 whole entry): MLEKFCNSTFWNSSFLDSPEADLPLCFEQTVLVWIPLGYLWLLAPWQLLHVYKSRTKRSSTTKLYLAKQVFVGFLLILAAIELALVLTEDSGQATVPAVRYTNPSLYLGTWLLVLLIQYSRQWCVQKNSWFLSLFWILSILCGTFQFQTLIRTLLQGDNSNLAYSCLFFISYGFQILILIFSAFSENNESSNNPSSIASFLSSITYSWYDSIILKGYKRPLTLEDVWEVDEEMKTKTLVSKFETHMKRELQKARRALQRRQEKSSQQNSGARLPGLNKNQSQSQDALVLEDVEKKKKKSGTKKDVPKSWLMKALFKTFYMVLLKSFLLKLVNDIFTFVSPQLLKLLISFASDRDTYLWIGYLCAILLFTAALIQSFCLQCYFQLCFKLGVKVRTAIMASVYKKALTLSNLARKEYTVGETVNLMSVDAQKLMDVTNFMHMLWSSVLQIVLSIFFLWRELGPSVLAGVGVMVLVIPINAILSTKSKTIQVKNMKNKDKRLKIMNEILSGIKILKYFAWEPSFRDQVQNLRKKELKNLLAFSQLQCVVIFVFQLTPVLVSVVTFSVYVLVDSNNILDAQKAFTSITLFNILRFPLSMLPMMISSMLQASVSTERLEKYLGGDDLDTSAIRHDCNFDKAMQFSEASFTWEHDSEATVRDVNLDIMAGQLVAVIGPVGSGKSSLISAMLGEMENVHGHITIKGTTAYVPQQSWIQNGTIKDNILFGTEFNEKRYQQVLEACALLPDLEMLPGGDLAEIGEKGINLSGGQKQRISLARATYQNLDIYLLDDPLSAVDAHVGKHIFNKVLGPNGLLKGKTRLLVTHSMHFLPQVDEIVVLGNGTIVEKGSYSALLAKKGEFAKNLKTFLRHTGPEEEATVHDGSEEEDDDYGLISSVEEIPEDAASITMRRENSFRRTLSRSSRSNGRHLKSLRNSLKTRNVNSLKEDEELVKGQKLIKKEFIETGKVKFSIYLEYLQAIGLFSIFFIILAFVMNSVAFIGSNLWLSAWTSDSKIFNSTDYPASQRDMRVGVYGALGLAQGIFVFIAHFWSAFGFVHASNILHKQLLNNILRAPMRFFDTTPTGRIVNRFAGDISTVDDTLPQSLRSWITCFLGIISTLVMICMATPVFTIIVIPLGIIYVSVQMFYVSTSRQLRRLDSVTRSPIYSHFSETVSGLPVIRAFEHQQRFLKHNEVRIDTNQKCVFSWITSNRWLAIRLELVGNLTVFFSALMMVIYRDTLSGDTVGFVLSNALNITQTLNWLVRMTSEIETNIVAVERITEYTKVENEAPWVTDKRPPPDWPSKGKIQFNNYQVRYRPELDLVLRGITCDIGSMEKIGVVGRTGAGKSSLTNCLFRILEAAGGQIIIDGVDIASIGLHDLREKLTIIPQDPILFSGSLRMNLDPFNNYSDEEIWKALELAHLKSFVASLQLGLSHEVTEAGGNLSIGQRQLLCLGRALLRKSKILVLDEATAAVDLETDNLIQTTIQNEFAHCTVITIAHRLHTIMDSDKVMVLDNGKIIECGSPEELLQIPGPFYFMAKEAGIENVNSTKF

- inhibition of P-gp substrate accumulation (P-gp [1]): None
Structure (SMILES): OC[C@@H](O)[C@@H](O[C@@H]1O[C@H](CO)[C@H](O)[C@H](O)[C@H]1O)[C@H](O)[C@@H](O)CO [lactitol]

Structure (SMILES): CC1=C(/C=C/C(C)=C/C=C/C(C)=C/C=C/C=C(C)/C=C/C=C(\C)C=O)C(C)(C)CCC1 [beta-apo-8’-carotenal]
- inhibition of OATP2B1-mediated uptake (OATP2B1 [2]): did not inhibit these transporters as markedly as beta-carotene
- inhibition of P-gp substrate accumulation (P-gp [1]): did not inhibit these transporters as markedly as beta-carotene
- inhibition of BCRP substrate accumulation (BCRP [3]; [7]): did not inhibit these transporters as markedly as beta-carotene

Structure (SMILES): COc1ccc(O)c(C(C)(C)C)c1 [butylated hydroxyanisole]
- inhibition of OATP2B1-mediated uptake (OATP2B1 [2]): ≤ 50%
- OATP2B1 inhibition (OATP2B1 [4]; ref Kulkarni et al.): significant inhibitor
- IC50 (OATP2B1 [4]; ref Kulkarni et al., read-out: IC50, OATP2B1): > 50 µM
- IC50 (BCRP [5]; read-out: IC50, BCRP, ref Kulkarni et al.): > 50 µM
- BCRP inhibition (BCRP [5]; ref Kulkarni et al.): significant inhibitor
- inhibition of P-gp substrate accumulation (P-gp [1]): ≤ 50%
- inhibition of BCRP substrate accumulation (BCRP [3]; [7]): ≤ 50%
- IC50 (P-gp [6]): > 50 µM
- P-gp inhibition (P-gp [6]): significant inhibitor

- IC50 (BCRP [3]; Lucifer yellow 50 μM, membrane vesicles, n = 3, read-out: IC50 (95% CI), BCRP): 22.5 µM
- inhibition at 50 μM (BCRP [3]; Sf9-derived crude membrane vesicles expressing BCRP, pH 7, probe Lucifer yellow 50 μM, food additive 50 μM, n = 1, read-out: inhibition of BCRP substrate accumulation): ≥ 50%
Structure (SMILES): CCCCCCCCCCCCOC(=O)c1cc(O)c(O)c(O)c1 [dodecyl gallate]

- inhibition of P-gp substrate accumulation (P-gp [1]): None
Structure (SMILES): OC[C@@H](O)[C@@H](O)[C@H](O)[C@@H](O)CO [sorbitol]

Structure (SMILES): OC[C@@H](O)[C@@H](O[C@H]1O[C@H](CO)[C@@H](O)[C@H](O)[C@H]1O)[C@H](O)[C@@H](O)CO [maltitol]
- inhibition of P-gp substrate accumulation (P-gp [1]): None

- inhibition of P-gp substrate accumulation (P-gp [1]): None
Structure (SMILES): CCCOC(=O)c1cc(O)c(O)c(O)c1 [propyl gallate]

Structure (SMILES): COc1ccc2c3c([nH]c2c1)[C@H](CC(C)C)N1C(=O)[C@H](CCC(=O)OC(C)(C)C)NC(=O)[C@@H]1C3 [Ko-143, reference compound]
- apical to basolateral P app of sulfasalazine with control inhibitor (Caco-2 cells; Ko-143 10 μM on apical and basolateral sides, sulfasalazine 500 μM): ~0.6 × 10^–6 cm/s

- inhibition of P-gp substrate accumulation (P-gp [1]): None
Structure (SMILES): OC[C@@H](O)[C@H](O)[C@@H](O)CO [xylitol]

- inhibition of P-gp substrate accumulation (P-gp [1]): None
Structure (SMILES): O=C1O[C@H]([C@@H](O)CO)C(O)=C1O [ascorbic acid]

Structure (SMILES): O=S(=O)([O-])c1ccc(N=Nc2c(O)ccc3cc(S(=O)(=O)[O-])ccc23)cc1.[Na+].[Na+] [sunset yellow FCF]
- effect on sulfasalazine permeability (P app) (Caco-2 cells; Caco-2): None of the selected food additives showed any effect
- IC50 (OATP2B1 [4]; pH 5.5, previously characterized inhibitors, ref previous studies, read-out: IC50, OATP2B1, pH 5.5): 20.3 µM
- Ki (OATP2B1 [4]; previously characterized inhibitors, ref previous studies, read-out: K i, OATP2B1): 68.4 µM
- IC50 (BCRP [5]; read-out: IC50 (95% CI), BCRP, previously characterized inhibitors, ref previous studies): 10.6 µM and 14.1 µM

Structure (SMILES): O=C([O-])C1=NN(c2ccc(S(=O)(=O)[O-])cc2)C(=O)C1N=Nc1ccc(S(=O)(=O)[O-])cc1.[Na+].[Na+].[Na+] (centres unmarked) [tartrazine]
- sulfasalazine P app fold change (Caco-2 cells; food additive 200 μM on both sides of the cell monolayer): ≤ 2

- IC50 (MRP2; CDCF 5 μM, membrane vesicles, n = 3, read-out: IC50 (95% CI), MRP2): 49 µM
- inhibition at 50 μM (MRP2; Sf9-derived crude membrane vesicles expressing MRP2, pH 7, probe CDCF 5 μM, food additive 50 μM, n = 1, read-out: inhibition of MRP2 substrate accumulation): ≥ 50%
- inhibition of OATP2B1-mediated uptake (OATP2B1 [2]): OATP2B1-stimulating effect
- inhibition of P-gp substrate accumulation (P-gp [1]): None
Structure (SMILES): Cc1cc(C(C)(C)C)c(O)c(C(C)(C)C)c1 [butylated hydroxytoluene]
- OATP2B1 inhibition (OATP2B1 [4]; ref Kulkarni et al.): did not inhibit; also recorded: OATP2B1-stimulating effect
- BCRP inhibition (BCRP [5]; ref Kulkarni et al.): did not inhibit
- P-gp inhibition (P-gp [6]): did not inhibit

- inhibition of P-gp substrate accumulation (P-gp [1]): None
Structure (SMILES): OC[C@@H](O)[C@@H](O)CO [erythritol]

- inhibition of P-gp substrate accumulation (P-gp [1]): None
Structure (SMILES): OC[C@@H](O)[C@@H](O)[C@H](O)[C@H](O)CO [mannitol]
